Measured values reported in patent US20120021014A1, “CORROSION CURRENT-GENERATING METAL PARTICULATES AND USE THEREOF” (priority 2010, published 2012).

Tests used:
human keratinocyte cells = experiment: Hydrogen peroxide production in human keratinocytes (CM-H2DCFDA fluorescence); assay type: cell-based; conditions: 0.03% positive control; 60 Minutes
Experimental: The cells were treated with different amounts of the magnesium powder.

Albino male CD-1 mice = experiment: Oxazolone immune cell-mediated skin inflammation model (ear biopsy weight); assay type: in vivo; conditions: 1 mg/ml positive control, topical to ear; 24 hours
[1] = system: male albino Wistar rats (SPRAGUE DAWLEY); experiment: CFA-induced ankle arthritis, joint swelling (paw volume difference); assay type: in vivo; conditions: positive control, 3 mg/kg once daily; CFA-induced paw vs control paw
[2] = system: male albino Wistar rats (SPRAGUE DAWLEY); experiment: CFA-induced ankle arthritis, incapacitance test (weight bearing); assay type: in vivo; conditions: positive control, 3 mg/kg once daily prior to the functional measurements

SMILES: OO [H2O2, hydrogen peroxide]
- Hydrogen peroxide production (fluorescence 485 nm excitation/530 nm emission) (human keratinocyte cells): 150.11 ± 2.9

SMILES: C[C@]12CCC(=O)C=C1CC[C@@H]1[C@@H]2[C@@H](O)C[C@@]2(C)[C@H]1CC[C@]2(O)C(=O)CO [Hydrocortisone, hydrocortisone]
- Percent Inhibition of Skin Inflammation (Albino male CD-1 mice): 70.3% ± 6.6%

SMILES: CN1CC[C@]23c4c5ccc(O)c4O[C@H]2[C@@H](O)C=C[C@H]3[C@H]1C5.O=S(=O)(O)O [Morphine, morphine sulphate]
- MEAN PAW VOLUME DIFFERENCE [1]: 1.38 mL
- Deficiency Improvement, MEAN IMPROVEMENT (weight bearing percent minus Day 4 baseline, averaged over all time points) [2]: 16.85
